Test results reported in patent US20080193505A1, “Nutritional Compositions For Modulating Vitamin C Bio-Availability” (Nestec S.A., priority 2005, published 2008).

Tested on: SVCT1
Experiment: Real-time PCR in-vitro test of SVCT1 gene expression in primary keratinocytes
Type: cell-based, human
Details: NHEK; 10 μM
Method: Confluent primary keratinocytes (NHEK) were treated with a test compound or subsequently used for reverse transcription and real-time PCR analysis of SVCT1 and SVCT2. 18S-rRNA and GAPDH mRNA analysis served as endogenous control (housekeeping genes).
Primary adult epidermal keratinocytes (NHEK) for Cambrex Company (USA, Ordering number: CC-2501) have been used in this study. They were grown in KGM medium (Cambrex Company, USA, Ordering number: CC-3101 and CC-4131) on fibronectin and collagen type I coated plastic dishes (6- or 12-well plates) at 37° C. and 5% CO2 and expanded until passage 4 where they were used for further experiments.
NHEK cells at passage 4 were seated in 6 well plates at a density of 5000 cells/cm2, determined by means of a Thoma chamber under a light microscope. Cells were grown to 100% confluence within 5-6 days with medium changed every second day and were further used for in vitro-test for gene expression as depicted schematically in FIG. 1.
After removal of the supernatant the cells were rinsed twice with Dubellco's phophate buffered saline (PBS, Sigma, Germany), cells were lysed with 350 μl of a lysis buffer (Buffer RL, Qiagen AG, Basel, Switzerland) containing 1% β-mercaptoethanol (Sigma, USA) and total RNAs from cell lysates were extracted using the QIAshredder column and the RNeasy® Mini Kit (Qiagen AG, Basel, Switzerland). RNA quantification was performed using the Ribogreen® RNA quantitation Kit (Molecular Probes, USA) on 96-well plates and a fluorescence microplate reader (Spectra fluor plus F 129005, Tecan). The measurements were done in duplicate. The samples were diluted either 1:680 or 1:3400 in a final volume of 100 μl 1×TE buffer. Dilutions of the ribosomal RNA in a concentration of 1, 0.5, 0.1, 0.02, 0 μg/ml were used as standards and the measurement was performed by fluorimetry at 485 nm and 538 nm. RNA quantification was then calculated compared to the standard curve. Integrity of RNA was controlled using agarose gel electrophoresis (1% agarose in TBE: 90 mM Tris/HCl pH 8.0, 80 mM Boric acid, 3 mM EDTA in ddH2O).
For reverse transciption 2 μl pd(N)6 random hexamers (Amersham Biosciences, Art. n° 272080, England) and 1 μl dNTP (10 mM, Amersham Biosciences, Art. n° 272050, −60, −70, −80, England) were added to 2 μg RNA in nuclease-free water (Ambion, USA) in a final volume of 12 μl. After 5 min incubation at 65° C., samples were immediately placed on ice and quickly centrifuged. Then, 4 μl of 5× first strand buffer (250 mM NaCl, 0.1 mM EDTA, 1 mM DTT, 0.1% (V/v) NP-40, 50% (v/v) glycerol), 2 μl of dithiothreitol, 1 μl of RNase inhibitor and 1 μl of reverse transcriptase SuperScript II RNase H^− (SUPERase-In, 20 U/μl, Ambion, Art. n° 2694, USA) were added (final volume 20 μl). […] The sample was then kept in the freezer at −20° C. until further use.
The real-time PCR was performed according to the TaqMane method in 96 well plates (96WP) using assays-on-demand primer and probes (SVCT1: Hs00195277_ml, SVCT2:, Hs00192765_ml, 18S-rRNA: 4310893E, GAPDH: 4310884E Applied Biosystems, USA). Analysis was done in triplicate using a master mix (3.5×) which contained 43.7 μl TaqMan® 2× Universal PCR master mix (Applied Biosystems, USA), 4.4 μl assays-on-demand primers and probes, 21.9 μl nuclease-free water and 17.5 μl cDNA (87.5 ng=[…] per replicate). Triplicates of 25 μl master mix were loaded on a 96 well ABI PRISM reaction plate (Applied Biosystems, USA), covered with a transparent optical adhesive cover and centrifuged three times at 200 rpm for 1 min or until all air-bubbles had been removed. The PCR reaction was then performed in the ABI PRISMS 7000 Sequence Detection System (Applied Biosystems, USA) using the following temperature program: activation of the enzyme: 2 min at 50° C.; denaturation: 10 min at 95° C. and 40 cycles target amplification: 15 sec […] at 95° C. and 1 min extension at 60° C.

Compound | influence on expression
O=c1c(-c2ccc(O)cc2)coc2cc(O)cc(O)c12 [genistein] | did not show any influence
Oc1ccc(C2COc3cc(O)ccc3C2)cc1 (racemic) [equol, (R,S)-equol] | did not show any influence
COc1ccc([C@@H]2CC(=O)c3c(O)cc(O)cc3O2)cc1O [hesperetin/hesperidin, hesperetin] | did not show any influence
O=c1c(O)c(-c2ccc(O)c(O)c2)oc2cc(O)cc(O)c12 [quercitin, quercetin] | did not show any influence
COc1cc(/C=C/C(=O)CC(=O)/C=C/c2ccc(O)c(OC)c2)ccc1O [curcumin] | did not show any influence
(−) epigallocatechin gallate [(−) epigallocatechin gallate (EGCg)] | did not show any influence

Same assay, conditions: summary statement in description

Compound | transcription of SVCT1 mRNA
[Cl-].[Cl-].[Zn+2] [ZnCl2] | significantly down-regulated
CC1=C(/C=C/C(C)=C/C=C/C(C)=C/C(=O)O)C(C)(C)CCC1 [all-trans retinoic acid] | significantly down-regulated
C[S+]([O-])CCCCN=C=S (stereo not shown) [sulforaphane] | significantly down-regulated

Tested on: HaCaT cells
Experiment: 14C-labelled ascorbic acid up-take in HaCaT cells (oxidative stress model)
Type: cell-based, human
Details: iron salt treated cells
Method: Confluent HaCaT cells were treated for 18-24 h with a test compound or control, incubated with ^14C-labelled ascorbic acid at two different concentrations (5 μM and 250 μM) for 5 min, 10 min, 30 min, 60 min, 90 min and 120 min. Cells were lysed and the radiolabel in the supernatant and the cell lysate was quantified by scintillation counting.
Confluent HaCaT cells were treated for 2 h with 50 μM menadione (black rhombus), 500 μM H2O2 (triangles), conditioned medium obtained from UV-irradiated HaCaT cells (squares) or control (grey rhombus) and subsequently incubated with 50 μM ^14C-labelled ascorbic acid for 5 min, 10 min, 30 min, 60 min, 90 min and 120 min. Cells were lysed and the radiolabel in supernatant and cell lysate quantified by scintillation counting.
Confluent HaCaT cells were treated with 50 μM FeCl3 (triangles) or controls (grey rhombus) for 24 h and for additional 2 h with 50 μM menadione (filled symbols) or controls (open symbols). Subsequently, cells were incubated with 50 μM ^14C-labelled ascorbic acid for 5 min, 10 min, 30 min, 60 min, 90 min and 120 min, cells were lysed and the radiolabel in supernatant and cell lysate quantified by scintillation counting.
Confluent HaCaT cells were incubated with or without test compound (aqueous FeCl3 solution in different concentrations) for 18-24 h and eventually stressed for further 2 h with 50 μM menadione, 500 μM H2O2 or conditioned medium obtained from UV-irradiated HaCaTs. Then cells were washed twice with PBS and incubated with 300 μl or 400 μl of ^14C-labelled ascorbic acid at different concentrations of (5 μM, 50 μM or 250 μM) by diluting the prepared stock solution in the appropriate amount of transfer buffer. After incubation at 37° C. for different periods of time (5, 10, 30, 60, 90 and 120 min) cells were immediately placed on ice, supernatant removed and frozen, cells washed twice with ice-cold PBS and finally harvested with a cell scraper and 300 μl or 400 μl urea buffer (9.5M urea, 10 mM Tris/HCl pH 8.0, 2 mM EDTA pH 8.0). Amount of radiolabel in supernatant and cell lysate was then measured by scintillation counting of a dilution of 50 μl supernatant or 200 μl of cell lysate in 9 ml scintillation cocktail. Obtained data were analysed by blotting incubation time versus ascorbic acid up-take (either as percentage or nmolar).

Compound | Vitamin C uptake by the cell
[Cl][Fe]([Cl])[Cl] [FeCl3] | enlarged

Same assay, conditions: similar conditions as for FeCl3; data not shown

Compound | ascorbic acid up-take in the oxidative stress model
N[C@@H](CCC(=O)N[C@@H](CS)C(=O)NCC(=O)O)C(=O)O [glutathione] | increase ascorbic acid up-take
CC(=O)N[C@@H](CS)C(=O)O [N-acetyl-cysteine] | increase ascorbic acid up-take
NCCCC[C@H](N)C(=O)O [lysine] | increase ascorbic acid up-take
